Laboratory results: patent US20230219931A1, “FUSED HETEROARYL HYDROXAMATES AS STING AGONISTS” (BiSiChem Co., Ltd., priority 2022, published 2023)
Counter-ions that a name gives are not always drawn.

System: ISG reporter activity in THP1-Dual cell
Assay: ISG reporter assay
Assay type: cell-based
Details: Homo sapiens, compounds incubated with cells for 24 hours, QUANTI-Blue, absorbance at 655 nm
Experimental: [Worded in the source for another cell line; this cell line is reported under the same test.] THP1-Blue cells (cat. no. thp-isg) were purchased from InvivoGen (Sandiago, USA). Penicillin—streptomycin (cat. no. L0022-100), Fetal Bovine Serum (FBS) (cat. no. S1480-500) and Roswell Park Memorial Institute (RPMI) 1640 media (cat. L0498-500) were purchased from biowest (Nuaille, France). Zeocin (cat. no. ant-zn-OS) and Normocin (cat. no. ant-nr-1) were purchased from InvivoGen (Sandiago, USA). QUANTI-Blue™ (cat. no. rep-qbs) was purchased from InvivoGen. THP1-Blue cells were cultured in RPMI 1640 medium with 10% heat-inactivated FBS, 100 μg/ml Normocin, 100 μg/ml Zeocin and 100 U/ml-100 μg/ml penicillin-streptomycin. The cells were incubated at 37° C. in a humidified atmosphere of 5% CO2.
THP1-Blue cells were seeded at 5×10^4 cells/well (90 μl/well). 10 μl of compounds were added to the cells and incubated for 24 hours. 20 μl of cell culture supernatant was dispensed new 96-well plate (cat. no. 30096) with 180 μl of QUANTI-Blue™ solution and incubated for 15 minutes at 37° C. The absorbance was measured by Varioskan Lux (Thermofisher Scientific, USA) at 655 nm.

CCn1nc(C)cc1C(=O)Nc1nc2cc(C(=O)O)cc(OC)c2n1C/C=C/Cn1c(NC(=O)c2cc(C)nn2CC)nc2cc(C(N)=O)cc(OCC#CC3CCN(C(=O)OC(C)(C)C)CC3)c21 [Example 1, (E)-1-(4-(7-((3-(1-(tert-butoxycarbonyl)piperidin-4-yl)prop-2-yn-1-yl)oxy)-5-carbamoyl-2-(1-ethyl-3-methyl-1H-pyrazole-5-carboxamido)-1H-benzo[d]imidazol-1-yl)but-2-en-1-yl)-2-(1-ethyl-3-methyl-1H-pyrazole-5-carboxamido)-7-methoxy-1H-benzo[d]imidazole-5-carboxylic acid]
EC50: > 500 nM

CCn1nc(C)cc1C(=O)Nc1nc2cc(C(=O)NOC)cc(OC)c2n1C/C=C/Cn1c(NC(=O)c2cc(C)nn2CC)nc2cc(C(N)=O)cc(OCC#CC3CCN(C(=O)OC(C)(C)C)CC3)c21 [Example 2, tert-butyl (E)-4-(3-((5-carbamoyl-2-(1-ethyl-3-methyl-1H-pyrazole-5-carboxamido)-1-(4-(2-(1-ethyl-3-methyl-1H-pyrazole-5-carboxamido)-7-methoxy-5-(methoxycarbamoyl)-1H-benzo[d]imidazol-1-yl)but-2-en-1-yl)-1H-benzo[d]imidazol-7-yl)oxy)prop-1-yn-1-yl)piperidine-1-carboxylate]
EC50: > 500 nM

CCn1nc(C)cc1C(=O)Nc1nc2cc(C(N)=O)cc(OC)c2n1C/C=C/Cn1c(NC(=O)c2cc(C)nn2CC)nc2cc(C(N)=O)cc(OCC#CC3CCN(C(=O)OC(C)(C)C)CC3)c21 [Example 3, tert-butyl (E)-4-(3-((5-carbamoyl-1-(4-(5-carbamoyl-2-(1-ethyl-3-methyl-1H-pyrazole-5-carboxamido)-7-methoxy-1H-benzo[d]imidazol-1-yl)but-2-en-1-yl)-2-(1-ethyl-3-methyl-1H-pyrazole-5-carboxamido)-1H-benzo[d]imidazol-7-yl)oxy)prop-1-yn-1-yl)piperidine-1-carboxylate]
EC50: < 50 nM

CCn1nc(C)cc1C(=O)Nc1nc2cc(C(N)=O)cc(OC)c2n1C/C=C/Cn1c(NC(=O)c2cc(C)nn2CC)nc2cc(C(N)=O)cc(OCC#CC3CCNCC3)c21 [Example 4, (E)-1-(4-(5-carbamoyl-2-(1-ethyl-3-methyl-1H-pyrazole-5-carboxamido)-7-((3-(piperidin-4-yl)prop-2-yn-1-yl)oxy)-1H-benzo[d]imidazol-1-yl)but-2-en-1-yl)-2-(1-ethyl-3-methyl-1H-pyrazole-5-carboxamido)-7-methoxy-1H-benzo[d]imidazole-5-carboxamide hydrochloride]
EC50: 50 to 500 nM

CCn1nc(C)cc1C(=O)Nc1nc2cc(C(N)=O)cc(OC)c2n1C/C=C/Cn1c(NC(=O)c2cc(C)nn2CC)nc2cc(C(N)=O)cc(OCC#CC3CCN(C(=O)OC(C)C)CC3)c21 [Example 5, isopropyl (E)-4-(3-((5-carbamoyl-1-(4-(5-carbamoyl-2-(1-ethyl-3-methyl-1H-pyrazole-5-carboxamido)-7-methoxy-1H-benzo[d]imidazol-1-yl)but-2-en-1-yl)-2-(1-ethyl-3-methyl-1H-pyrazole-5-carboxamido)-1H-benzo[d]imidazol-7-yl)oxy)prop-1-yn-1-yl)piperidine-1-carboxylate]
EC50: < 50 nM

CCn1nc(C)cc1C(=O)Nc1nc2cc(C(N)=O)cc(OC)c2n1C/C=C/Cn1c(NC(=O)c2cc(C)nn2CC)nc2cc(C(N)=O)cc(OCC#CC3CCN(C(=O)OC4CC4)CC3)c21 [Example 6, cyclopropyl (E)-4-(3-((5-carbamoyl-1-(4-(5-carbamoyl-2-(1-ethyl-3-methyl-1H-pyrazole-5-carboxamido)-7-methoxy-1H-benzo[d]imidazol-1-yl)but-2-en-1-yl)-2-(1-ethyl-3-methyl-1H-pyrazole-5-carboxamido)-1H-benzo[d]imidazol-7-yl)oxy)prop-1-yn-1-yl)piperidine-1-carboxylate]
EC50: < 50 nM

CCn1nc(C)cc1C(=O)Nc1nc2cc(C(N)=O)cc(OC)c2n1C/C=C/Cn1c(NC(=O)c2cc(C)nn2CC)nc2cc(C(N)=O)cc(OCC#CC3CCN(C(=O)OC4CCCC4)CC3)c21 [Example 7, cyclopentyl (E)-4-(3-((5-carbamoyl-1-(4-(5-carbamoyl-2-(1-ethyl-3-methyl-1H-pyrazole-5-carboxamido)-7-methoxy-1H-benzo[d]imidazol-1-yl)but-2-en-1-yl)-2-(1-ethyl-3-methyl-1H-pyrazole-5-carboxamido)-1H-benzo[d]imidazol-7-yl)oxy)prop-1-yn-1-yl)piperidine-1-carboxylate]
EC50: < 50 nM

CCn1nc(C)cc1C(=O)Nc1nc2cc(C(N)=O)cc(OC)c2n1C/C=C/Cn1c(NC(=O)c2cc(C)nn2CC)nc2cc(C(N)=O)cc(OCC#CC3CCN(C(=O)OC4CCN(C(=O)OC(C)(C)C)CC4)CC3)c21 [Example 8, 1-(tert-butoxycarbonyl)piperidin-4-yl (E)-4-(3-((5-carbamoyl-1-(4-(5-carbamoyl-2-(1-ethyl-3-methyl-1H-pyrazole-5-carboxamido)-7-methoxy-1H-benzo[d]imidazol-1-yl)but-2-en-1-yl)-2-(1-ethyl-3-methyl-1H-pyrazole-5-carboxamido)-1H-benzo[d]imidazol-7-yl)oxy)prop-1-yn-1-yl)piperidine-1-carboxylate]
EC50: < 50 nM

CCn1nc(C)cc1C(=O)Nc1nc2cc(C(N)=O)cc(OC)c2n1C/C=C/Cn1c(NC(=O)c2cc(C)nn2CC)nc2cc(C(N)=O)cc(OCC#CC3CCN(C(=O)OC4CCNCC4)CC3)c21 [Example 9, piperidin-4-yl (E)-4-(3-((5-carbamoyl-1-(4-(5-carbamoyl-2-(1-ethyl-3-methyl-1H-pyrazole-5-carboxamido)-7-methoxy-1H-benzo[d]imidazol-1-yl)but-2-en-1-yl)-2-(1-ethyl-3-methyl-1H-pyrazole-5-carboxamido)-1H-benzo[d]imidazol-7-yl)oxy)prop-1-yn-1-yl)piperidine-1-carboxylate hydrochloride]
EC50: 50 to 500 nM

CCn1nc(C)cc1C(=O)Nc1nc2cc(C(N)=O)cc(OC)c2n1C/C=C/Cn1c(NC(=O)c2cc(C)nn2CC)nc2cc(C(N)=O)cc(OCC#CC3CCN(C(=O)OCCO)CC3)c21 [Example 10, 2-hydroxyethyl (E)-4-(3-((5-carbamoyl-1-(4-(5-carbamoyl-2-(1-ethyl-3-methyl-1H-pyrazole-5-carboxamido)-7-methoxy-1H-benzo[d]imidazol-1-yl)but-2-en-1-yl)-2-(1-ethyl-3-methyl-1H-pyrazole-5-carboxamido)-1H-benzo[d]imidazol-7-yl)oxy)prop-1-yn-1-yl)piperidine-1-carboxylate]
EC50: < 50 nM

CCn1nc(C)cc1C(=O)Nc1nc2cc(C(N)=O)cc(OC)c2n1C/C=C/Cn1c(NC(=O)c2cc(C)nn2CC)nc2cc(C(N)=O)cc(OCC#CC3CCN(C(=O)C(C)(C)C)CC3)c21 [Example 11, (E)-1-(4-(5-carbamoyl-2-(1-ethyl-3-methyl-1H-pyrazole-5-carboxamido)-7-((3-(1-pivaloylpiperidin-4-yl)prop-2-yn-1-yl)oxy)-1H-benzo[d]imidazol-1-yl)but-2-en-1-yl)-2-(1-ethyl-3-methyl-1H-pyrazole-5-carboxamido)-7-methoxy-1H-benzo[d]imidazole-5-carboxamide]
EC50: < 50 nM

CCn1nc(C)cc1C(=O)Nc1nc2cc(C(N)=O)cc(OC)c2n1C/C=C/Cn1c(NC(=O)c2cc(C)nn2CC)nc2cc(C(N)=O)cc(OCC#CC3CCN(C(=O)C4CCN(C(=O)OC(C)(C)C)CC4)CC3)c21 [Example 12, tert-butyl (E)-4-(4-(3-((5-carbamoyl-1-(4-(5-carbamoyl-2-(1-ethyl-3-methyl-1H-pyrazole-5-carboxamido)-7-methoxy-1H-benzo[d]imidazol-1-yl)but-2-en-1-yl)-2-(1-ethyl-3-methyl-1H-pyrazole-5-carboxamido)-1H-benzo[d]imidazol-7-yl)oxy)prop-1-yn-1-yl)piperidine-1-carbonyl)piperidine-1-carboxylate]
EC50: < 50 nM

CCn1nc(C)cc1C(=O)Nc1nc2cc(C(N)=O)cc(OC)c2n1C/C=C/Cn1c(NC(=O)c2cc(C)nn2CC)nc2cc(C(N)=O)cc(OCC#CC3CCN(C(=O)c4cc(C)nn4CC)CC3)c21 [Example 13, (E)-1-(4-(5-carbamoyl-2-(1-ethyl-3-methyl-1H-pyrazole-5-carboxamido)-7-methoxy-1H-benzo[d]imidazol-1-yl)but-2-en-1-yl)-7-((3-(1-(1-ethyl-3-methyl-1H-pyrazole-5-carbonyl)piperidin-4-yl)prop-2-yn-1-yl)oxy)-2-(1-ethyl-3-methyl-1H-pyrazole-5-carboxamido)-1H-benzo[d]imidazole-5-carboxamide]
EC50: < 50 nM

CCn1nc(C)cc1C(=O)Nc1nc2cc(C(N)=O)cc(OC)c2n1C/C=C/Cn1c(NC(=O)c2cc(C)nn2CC)nc2cc(C(N)=O)cc(OCC#CC3CCN(C(=O)NC4CC4)CC3)c21 [Example 14, (E)-1-(4-(5-carbamoyl-2-(1-ethyl-3-methyl-1H-pyrazole-5-carboxamido)-7-methoxy-1H-benzo[d]imidazol-1-yl)but-2-en-1-yl)-7-((3-(1-(cyclopropylcarbamoyl)piperidin-4-yl)prop-2-yn-1-yl)oxy)-2-(1-ethyl-3-methyl-1H-pyrazole-5-carboxamido)-1H-benzo[d]imidazole-5-carboxamide]
EC50: < 50 nM
